Patent US20260130395A1, “Water Dispersible Botanical Compositions” (Aquila Black Limited, priority 2021, published 2026)

Columns and labels:
[1] = Stability of cannabinoid compounds and Vitamin E components in Beverage 1 (AB White) by LCMSMS; assay type: physicochemical; conditions: AB White stored at 21-25° C.
[2] = Stability of cannabinoid entourage and Vitamin E components of the powder concentrate by LCMSMS; assay type: physicochemical; conditions: powder stored at 21-25° C.
Protocol: At each time period, 0.05 g of powder was dissolved in 10 ml-15 of ethanol, diluted to fall within the analytical range, and injected into the LCMSMS for analysis.

For `CCCc1cc(O)c2c(c1)OC(C)(C)[C@@H]1CCC(C)=C[C@@H]21` [THCV, delta-9-tetrahydrocannabivarin], which “Stability of Plant-Derived Cannabinoid Compounds in AB White, 21-25° C.” value (“Stability … 21-25° C.” for short) ([1]; 29 days) is on record?
The value was 3.62 µg/mL.

And the “Stability … 21-25° C.” value ([1]; 30 days)?
The value was 3.48 µg/mL.

And the “Stability … 21-25° C.” value ([1]; 60 days)?
The value was 3.50 µg/mL.

And the “Stability … 21-25° C.” value ([1]; 90 days)?
The value was 3.47 µg/mL.

And the “Stability … 21-25° C.” value ([1]; 120 days)?
Its value is 3.45 µg/mL.

And the “Stability … 21-25° C.” value ([1]; 150 days)?
Its value is 3.54 µg/mL.

What about the “Stability … 21-25° C.” value ([1]; 180 days) of the same compound?
The value was 3.52 µg/mL.

What about the “Stability … 21-25° C.” value ([1]; 210 days) of the same compound?
Its value is 3.40 µg/mL.

What about the “Stability … 21-25° C.” value ([1]; 240 days) of the same compound?
Its value is 3.41 µg/mL.

And the “Stability … 21-25° C.” value ([1]; 270 days)?
The value was 3.56 µg/mL.

And the “Stability … 21-25° C.” value ([1]; 300 days)?
The value was 3.52 µg/mL.

And the “Stability … 21-25° C.” value ([1]; 330 days)?
The value was 3.55 µg/mL.

What about the “Stability … 21-25° C.” value ([1]; 360 days) of the same compound?
The value was 3.49 µg/mL.

What about the “Stability … 21-25° C.” value ([1]; 390 days) of the same compound?
The value was 3.40 µg/mL.

And the “Stability … 21-25° C.” value ([1]; 420 days)?
Its value is 3.46 µg/mL.

What about the “Stability … 21-25° C.” value ([1]; 450 days) of the same compound?
The value was 3.47 µg/mL.

What about the “Stability … 21-25° C.” value ([1]; 480 days) of the same compound?
Its value is 3.30 µg/mL.

And the “Stability … 21-25° C.” value ([1]; 510 days)?
Its value is 3.32 µg/mL.

And the “Stability … 21-25° C.” value ([1]; 540 days)?
Its value is 3.44 µg/mL.

What about the “Stability … 21-25° C.” value ([1]; 570 days) of the same compound?
The value was 3.30 µg/mL.

What about the “Stability of Plant-Derived Cannabinoid Compounds in Powder Concentrate” value (shortened to “Stability … in Powder Concentrate”) ([2]; 0 days) of the same compound?
The value was 0.680 mg/g powder.

What about the “Stability … in Powder Concentrate” value ([2]; 1 days) of the same compound?
Its value is 0.685 mg/g powder.

What about the “Stability … in Powder Concentrate” value ([2]; 2 days) of the same compound?
The value was 0.699 mg/g powder.

And the “Stability … in Powder Concentrate” value ([2]; 3 days)?
Its value is 0.698 mg/g powder.

And the “Stability … in Powder Concentrate” value ([2]; 5 days)?
Its value is 0.676 mg/g powder.

And the “Stability … in Powder Concentrate” value ([2]; 8 days)?
The value was 0.685 mg/g powder.

What about the “Stability … in Powder Concentrate” value ([2]; 9 days) of the same compound?
Its value is 0.693 mg/g powder.

And the “Stability … in Powder Concentrate” value ([2]; 10 days)?
The value was 0.706 mg/g powder.

And the “Stability … in Powder Concentrate” value ([2]; 11 days)?
The value was 0.708 mg/g powder.

What about the “Stability … in Powder Concentrate” value ([2]; 12 days) of the same compound?
The value was 0.698 mg/g powder.

And the “Stability … in Powder Concentrate” value ([2]; 15 days)?
Its value is 0.684 mg/g powder.

And the “Stability … in Powder Concentrate” value ([2]; 16 days)?
Its value is 0.658 mg/g powder.

And the “Stability … in Powder Concentrate” value ([2]; 17 days)?
The value was 0.681 mg/g powder.

And the “Stability … in Powder Concentrate” value ([2]; 18 days)?
The value was 0.690 mg/g powder.

What about the “Stability … in Powder Concentrate” value ([2]; 19 days) of the same compound?
Its value is 0.705 mg/g powder.

What about the “Stability … in Powder Concentrate” value ([2]; 22 days) of the same compound?
Its value is 0.703 mg/g powder.

And the “Stability … in Powder Concentrate” value ([2]; 23 days)?
Its value is 0.687 mg/g powder.

And the “Stability … in Powder Concentrate” value ([2]; 24 days)?
The value was 0.668 mg/g powder.

And the “Stability … in Powder Concentrate” value ([2]; 25 days)?
The value was 0.689 mg/g powder.

What about the “Stability … in Powder Concentrate” value ([2]; 26 days) of the same compound?
Its value is 0.686 mg/g powder.

What about the “Stability … in Powder Concentrate” value ([2]; 29 days) of the same compound?
The value was 0.706 mg/g powder.

What about the “Stability … in Powder Concentrate” value ([2]; 30 days) of the same compound?
The value was 0.659 mg/g powder.

What about the “Stability … in Powder Concentrate” value ([2]; 60 days) of the same compound?
The value was 0.702 mg/g powder.

What about the “Stability … in Powder Concentrate” value ([2]; 90 days) of the same compound?
The value was 0.707 mg/g powder.

What about the “Stability … in Powder Concentrate” value ([2]; 120 days) of the same compound?
The value was 0.658 mg/g powder.

And the “Stability … in Powder Concentrate” value ([2]; 150 days)?
Its value is 0.695 mg/g powder.

What about the “Stability … in Powder Concentrate” value ([2]; 180 days) of the same compound?
The value was 0.685 mg/g powder.

And the “Stability … in Powder Concentrate” value ([2]; 210 days)?
The value was 0.662 mg/g powder.

What about the “Stability … in Powder Concentrate” value ([2]; 240 days) of the same compound?
Its value is 0.700 mg/g powder.

And the “Stability … in Powder Concentrate” value ([2]; 270 days)?
Its value is 0.670 mg/g powder.

And the “Stability … in Powder Concentrate” value ([2]; 300 days)?
Its value is 0.685 mg/g powder.

And the “Stability … in Powder Concentrate” value ([2]; 330 days)?
Its value is 0.691 mg/g powder.

What about the “Stability … in Powder Concentrate” value ([2]; 360 days) of the same compound?
Its value is 0.668 mg/g powder.

And the “Stability … in Powder Concentrate” value ([2]; 390 days)?
The value was 0.680 mg/g powder.

And the “Stability … in Powder Concentrate” value ([2]; 420 days)?
The value was 0.671 mg/g powder.

And the “Stability … in Powder Concentrate” value ([2]; 450 days)?
Its value is 0.680 mg/g powder.

What about the “Stability … in Powder Concentrate” value ([2]; 480 days) of the same compound?
Its value is 0.695 mg/g powder.

What about the “Stability … in Powder Concentrate” value ([2]; 510 days) of the same compound?
The value was 0.696 mg/g powder.

And the “Stability … in Powder Concentrate” value ([2]; 540 days)?
The value was 0.664 mg/g powder.

And the “Stability … in Powder Concentrate” value ([2]; 570 days)?
The value was 0.686 mg/g powder.
